Blank lines part the entries; values can stand above or below the compound they belong to.
Tests used:
[1] = target: T1, Hck wild-type (Homo sapiens, UniProt P08631); test: Z'-LYTE in vitro kinase assay; format: biochemical; conditions: Tyr-2 peptide 1.0 μM, read-out: ATP Km
T1 construct: Recombinant near-full-length kinases, consisting of the SH2, SH3 and kinase domains plus the negative regulatory tail; made in house; host or cells: E. coli BL21Star (DE3), co-expressed with Csk and PTP1B

[2] = target: T2, Hck T338M (Homo sapiens, UniProt P08631, T333M); test: Z'-LYTE in vitro kinase assay; format: biochemical; conditions: Hck T338M; Tyr-2 peptide 1.0 μM; read-out: ATP Km
T2 construct: Recombinant near-full-length kinases, consisting of the SH2, SH3 and kinase domains plus the negative regulatory tail; made in house; host or cells: E. coli BL21Star (DE3), co-expressed with Csk and PTP1B
T2 sequence (P08631 78-526 T333M limits assumed): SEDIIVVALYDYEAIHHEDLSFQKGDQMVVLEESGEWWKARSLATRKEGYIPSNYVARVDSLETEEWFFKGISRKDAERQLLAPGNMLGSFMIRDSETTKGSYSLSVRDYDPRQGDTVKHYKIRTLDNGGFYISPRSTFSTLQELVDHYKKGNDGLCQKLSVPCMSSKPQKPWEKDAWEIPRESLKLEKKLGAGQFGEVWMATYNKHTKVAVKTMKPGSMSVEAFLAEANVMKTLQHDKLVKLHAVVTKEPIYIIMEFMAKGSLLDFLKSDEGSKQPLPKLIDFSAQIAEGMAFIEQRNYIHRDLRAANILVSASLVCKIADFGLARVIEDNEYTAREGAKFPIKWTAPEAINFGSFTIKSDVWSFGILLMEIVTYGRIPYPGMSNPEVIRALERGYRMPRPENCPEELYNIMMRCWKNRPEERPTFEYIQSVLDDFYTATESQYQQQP

[3] = target: T3, Hck T338L (Homo sapiens, UniProt P08631, T333L); test: Z'-LYTE in vitro kinase assay; format: biochemical; conditions: Hck T338L; Tyr-2 peptide 1.0 μM; read-out: ATP Km
T3 construct: Recombinant near-full-length kinases, consisting of the SH2, SH3 and kinase domains plus the negative regulatory tail; made in house; host or cells: E. coli BL21Star (DE3), co-expressed with Csk and PTP1B
T3 sequence (P08631 78-526 T333L limits assumed): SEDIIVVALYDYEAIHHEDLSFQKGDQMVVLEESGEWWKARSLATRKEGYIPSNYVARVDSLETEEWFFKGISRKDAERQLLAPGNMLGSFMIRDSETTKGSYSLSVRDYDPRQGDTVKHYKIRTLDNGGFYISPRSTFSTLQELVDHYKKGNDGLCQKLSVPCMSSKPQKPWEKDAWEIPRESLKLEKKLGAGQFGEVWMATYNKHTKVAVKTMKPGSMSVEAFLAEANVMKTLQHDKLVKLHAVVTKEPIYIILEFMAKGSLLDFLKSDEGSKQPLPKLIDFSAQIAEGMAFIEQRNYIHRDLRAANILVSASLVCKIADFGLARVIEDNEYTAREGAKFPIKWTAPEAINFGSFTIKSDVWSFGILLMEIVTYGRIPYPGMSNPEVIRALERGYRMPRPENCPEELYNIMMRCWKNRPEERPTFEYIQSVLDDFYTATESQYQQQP

[4] = target: T4, Hck T338F (Homo sapiens, UniProt P08631, T333F); test: Z'-LYTE in vitro kinase assay; format: biochemical; conditions: Hck T338F; Tyr-2 peptide 1.0 μM; read-out: ATP Km
T4 construct: Recombinant near-full-length kinases, consisting of the SH2, SH3 and kinase domains plus the negative regulatory tail; made in house; host or cells: E. coli BL21Star (DE3), co-expressed with Csk and PTP1B
T4 sequence (P08631 78-526 T333F limits assumed): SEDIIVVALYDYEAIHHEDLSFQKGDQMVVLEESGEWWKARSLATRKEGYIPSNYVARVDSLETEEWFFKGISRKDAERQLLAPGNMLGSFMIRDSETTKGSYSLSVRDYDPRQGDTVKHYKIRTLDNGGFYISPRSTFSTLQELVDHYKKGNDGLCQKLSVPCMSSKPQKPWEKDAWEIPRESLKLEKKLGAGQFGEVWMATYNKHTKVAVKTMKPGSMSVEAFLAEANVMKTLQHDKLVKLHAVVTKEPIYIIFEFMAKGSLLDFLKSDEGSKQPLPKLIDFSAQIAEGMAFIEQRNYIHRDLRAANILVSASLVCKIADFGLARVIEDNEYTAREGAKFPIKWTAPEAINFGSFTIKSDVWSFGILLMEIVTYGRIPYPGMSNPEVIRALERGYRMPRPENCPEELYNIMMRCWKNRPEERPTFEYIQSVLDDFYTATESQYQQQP

[5] = target: T5, Fgr wild-type (Homo sapiens, UniProt P09769); test: Z'-LYTE in vitro kinase assay; format: biochemical; conditions: Tyr-2 peptide 1.0 μM, read-out: ATP Km
T5 construct: Recombinant near-full-length kinases, consisting of the SH2, SH3 and kinase domains plus the negative regulatory tail; made in house; host or cells: E. coli BL21Star (DE3), co-expressed with Csk and PTP1B
Protocol: (§3) Assays were performed in quadruplicate in 384-well low volume, non-binding, black polystyrene microplates (Corning) according to the manufacturer’s instructions. Briefly, this assay measures phosphorylation of the Tyr2 peptide substrate which is tagged with coumarin and fluorescein on its N- and C-termini, respectively, to form a FRET pair. After the kinase reaction, a development step involves site-specific proteolytic cleavage of the unphosphorylated but not the phosphorylated peptide. […] Kinase reactions were run in 50 mM HEPES, pH 7.5, 10 mM MgCl2, 1 mM EGTA, and 0.01% BRIJ-35 (buffer supplied by the manufacturer). […] Following incubation for 1 h at ambient temperature, reactions were quenched by addition of the development protease, and coumarin and fluorescein fluorescence were measured 1 h later on a Molecular Devices SpectraMax M5 plate reader. […] For experiments with inhibitors, compounds were preincubated with kinase for 30 min prior to initiation of the reaction by the addition of ATP.

[6] = target: T6, Fgr T338M (Homo sapiens, UniProt P09769, T334M); test: Z'-LYTE in vitro kinase assay; format: biochemical; conditions: Fgr T338M; Tyr-2 peptide 1.0 μM; read-out: ATP Km
T6 construct: Recombinant near-full-length kinases, consisting of the SH2, SH3 and kinase domains plus the negative regulatory tail; made in house; host or cells: E. coli BL21Star (DE3), co-expressed with Csk and PTP1B
Protocol: as §3

[7] = target: T7, Fgr T338L (Homo sapiens, UniProt P09769, T334L); test: Z'-LYTE in vitro kinase assay; format: biochemical; conditions: Tyr-2 peptide 1.0 μM, read-out: ATP Km
T7 construct: Recombinant near-full-length kinases, consisting of the SH2, SH3 and kinase domains plus the negative regulatory tail; made in house; host or cells: E. coli BL21Star (DE3), co-expressed with Csk and PTP1B
Protocol: as §3

[8] = target: T8, Fgr T338F (Homo sapiens, UniProt P09769, T334F); test: Z'-LYTE in vitro kinase assay; format: biochemical; conditions: Fgr T338F; Tyr-2 peptide 1.0 μM; read-out: ATP Km
T8 construct: Recombinant near-full-length kinases, consisting of the SH2, SH3 and kinase domains plus the negative regulatory tail; made in house; host or cells: E. coli BL21Star (DE3), co-expressed with Csk and PTP1B
Protocol: as §3

[9] = target: T9, Lyn wild-type (Homo sapiens, UniProt P07948); test: Z'-LYTE in vitro kinase assay; format: biochemical; conditions: Tyr-2 peptide 1.0 μM, read-out: ATP Km
T9 construct: Recombinant near-full-length kinases, consisting of the SH2, SH3 and kinase domains plus the negative regulatory tail; made in house; host or cells: E. coli BL21Star (DE3), co-expressed with Csk and PTP1B
T9 sequence (P07948 63-512 limits assumed): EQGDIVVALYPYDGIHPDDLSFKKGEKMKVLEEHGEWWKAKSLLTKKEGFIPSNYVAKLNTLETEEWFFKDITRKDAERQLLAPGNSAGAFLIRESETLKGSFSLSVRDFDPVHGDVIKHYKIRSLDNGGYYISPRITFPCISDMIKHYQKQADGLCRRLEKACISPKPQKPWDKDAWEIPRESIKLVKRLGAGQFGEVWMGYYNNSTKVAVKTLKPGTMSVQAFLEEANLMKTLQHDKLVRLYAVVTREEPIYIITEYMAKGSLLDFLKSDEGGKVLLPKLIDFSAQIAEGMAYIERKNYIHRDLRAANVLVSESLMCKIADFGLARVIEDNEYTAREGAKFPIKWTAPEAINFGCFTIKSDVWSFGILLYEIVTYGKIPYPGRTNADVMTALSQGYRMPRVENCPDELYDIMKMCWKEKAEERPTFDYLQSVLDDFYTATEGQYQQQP

[10] = target: T10, Lyn T338M (Homo sapiens, UniProt P07948, T319M); test: Z'-LYTE in vitro kinase assay; format: biochemical; conditions: Tyr-2 peptide 1.0 μM, read-out: ATP Km
T10 construct: Recombinant near-full-length kinases, consisting of the SH2, SH3 and kinase domains plus the negative regulatory tail; made in house; host or cells: E. coli BL21Star (DE3), co-expressed with Csk and PTP1B
T10 sequence (P07948 63-512 T319M limits assumed): as the sequence (P07948 63-512 limits assumed) above, with T257M counted along it

[11] = target: T11, Lyn T338L (Homo sapiens, UniProt P07948, T319L); test: Z'-LYTE in vitro kinase assay; format: biochemical; conditions: Tyr-2 peptide 1.0 μM, read-out: ATP Km
T11 construct: Recombinant near-full-length kinases, consisting of the SH2, SH3 and kinase domains plus the negative regulatory tail; made in house; host or cells: E. coli BL21Star (DE3), co-expressed with Csk and PTP1B
T11 sequence (P07948 63-512 T319L limits assumed): as the sequence (P07948 63-512 limits assumed) above, with T257L counted along it

[12] = target: T12, Lyn T338F (Homo sapiens, UniProt P07948, T319F); test: Z'-LYTE in vitro kinase assay; format: biochemical; conditions: Tyr-2 peptide 1.0 μM, read-out: ATP Km
T12 construct: Recombinant near-full-length kinases, consisting of the SH2, SH3 and kinase domains plus the negative regulatory tail; made in house; host or cells: E. coli BL21Star (DE3), co-expressed with Csk and PTP1B
T12 sequence (P07948 63-512 T319F limits assumed): as the sequence (P07948 63-512 limits assumed) above, with T257F counted along it

[13] = tested on: MOLM13 cells (parent); test: CellTiter-Blue cell viability; format: cell-based, human; conditions: Homo sapiens, MOLM-13, S11 Fig, read-out: PRT062607 IC50, nM (growth suppression)
Protocol: (§1) Gibco/ThermoFisher). Parental TF-1 cells also require recombinant human GM-CSF (1 ng/mL; ThermoFisher). MOLM13 and MOLM14 cells were obtained from Leibniz Institute Deutsche Sammlung von Mikroorganismen (DSMZ) and grown in RPMI 1640 medium containing 20% FBS and Antibiotic-Antimycotic. […] Cell viability was assessed using the CellTiter-Blue reagent according to the manufacturer’s instructions (Promega). Fluorescence intensity, which correlates directly with viable cell number, was measured using a SpectraMax M5 microplate reader. Each experiment included three technical replicates per condition, and each experiment was repeated at least three times.

[14] = tested on: MOLM14 cells (parent); test: CellTiter-Blue cell viability; format: cell-based, human; conditions: Homo sapiens, MOLM-14, S11 Fig, read-out: PRT062607 IC50, nM (growth suppression)
Protocol: as §1

[15] = tested on: MV4-11 cells (parent); test: CellTiter-Blue cell viability; format: cell-based, human; conditions: Homo sapiens; S11 Fig; MV4-11 Parent; read-out: PRT062607 IC50, nM (growth suppression)
Protocol: as §1

[16] = tested on: MOLM13 R3 (A-419259-resistant population); test: CellTiter-Blue cell viability; format: cell-based, human; conditions: Homo sapiens, MOLM-13, S11 Fig, read-out: PRT062607 IC50, nM (growth suppression)
Protocol: (§2) Cell viability was assessed using the CellTiter-Blue reagent according to the manufacturer’s instructions (Promega). Fluorescence intensity, which correlates directly with viable cell number, was measured using a SpectraMax M5 microplate reader. Each experiment included three technical replicates per condition, and each experiment was repeated at least three times. […] Viability of each cell population was measured three times per week using the CellTiter-Blue assay.

[17] = tested on: MOLM14 R1 (A-419259-resistant population); test: CellTiter-Blue cell viability; format: cell-based, human; conditions: Homo sapiens, MOLM-14, S11 Fig, read-out: PRT062607 IC50, nM (growth suppression)
Protocol: as §2

[18] = tested on: MOLM14 R2 (A-419259-resistant population); test: CellTiter-Blue cell viability; format: cell-based, human; conditions: Homo sapiens, MOLM-14, S11 Fig, read-out: PRT062607 IC50, nM (growth suppression)
Protocol: as §2

[19] = tested on: MOLM14 R3 (A-419259-resistant population); test: CellTiter-Blue cell viability; format: cell-based, human; conditions: Homo sapiens, MOLM-14, S11 Fig, read-out: PRT062607 IC50, nM (growth suppression)
Protocol: as §2

[20] = tested on: MV4-11 R2 (A-419259-resistant population); test: CellTiter-Blue cell viability; format: cell-based, human; conditions: Homo sapiens, S11 Fig, read-out: PRT062607 IC50, nM (growth suppression)
Protocol: as §2

[21] = tested on: MV4-11 R3 (A-419259-resistant population); test: CellTiter-Blue cell viability; format: cell-based, human; conditions: Homo sapiens, S11 Fig, read-out: PRT062607 IC50, nM (growth suppression)
Protocol: as §2

[22] = tested on: MV4-11, MOLM13 and MOLM14 parent and A-419259-resistant cell populations; test: CellTiter-Blue cell viability, parent and resistant AML populations as a group; format: cell-based, human
Protocol: as §2

[23] = tested on: myeloid Src-family kinases; design: method as in S. Hellwig and T. Smithgall, unpublished data; conditions: ref S. Hellwig and T. Smithgall, unpublished data; cited from earlier work

T1 sequence (P08631 78-526 limits assumed): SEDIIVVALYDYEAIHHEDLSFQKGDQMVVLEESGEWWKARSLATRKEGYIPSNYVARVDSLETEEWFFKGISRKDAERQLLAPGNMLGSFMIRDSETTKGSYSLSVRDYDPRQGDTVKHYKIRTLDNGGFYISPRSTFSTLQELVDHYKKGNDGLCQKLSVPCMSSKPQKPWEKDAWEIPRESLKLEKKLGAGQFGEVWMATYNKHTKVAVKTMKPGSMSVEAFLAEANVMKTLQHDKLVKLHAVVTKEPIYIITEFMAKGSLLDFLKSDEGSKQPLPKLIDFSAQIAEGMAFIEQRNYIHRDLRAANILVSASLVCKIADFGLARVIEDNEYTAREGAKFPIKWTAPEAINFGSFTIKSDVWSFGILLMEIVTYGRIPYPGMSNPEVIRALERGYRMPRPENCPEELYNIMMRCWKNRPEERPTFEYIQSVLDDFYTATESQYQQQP

- Km [1]: 26 µM
- Km [2]: 6.9 µM
- Km [3]: 17.2 µM
- Km [4]: 42 µM
- Km [5]: 17.9 µM
- Km [6]: 5.3 µM
- Km [7]: 10 µM
- Km [8]: 95.7 µM
- Km [9]: 32.8 µM
- Km [10]: 7 µM
- Km [11]: 24 µM
- Km [12]: 87.3 µM
SMILES: Nc1ncnc2c1ncn2[C@@H]1O[C@H](COP(=O)(O)OP(=O)(O)OP(=O)(O)O)[C@@H](O)[C@H]1O [ATP]

- IC50 [13]: 1380 ± 124 nM
- IC50 [14]: 1330 ± 183 nM
- IC50 [15]: 453 ± 90.7 nM
- IC50 [16]: 1990 ± 377 nM
- IC50 [17]: 2030 ± 1090 nM
- IC50 [18]: 1640 ± 154 nM
- IC50 [19]: 1200 ± 128 nM
- IC50 [20]: 1720 ± 93.5 nM
- IC50 [21]: 795 ± 128 nM
SMILES: NC(=O)c1cnc(N[C@@H]2CCCC[C@@H]2N)nc1Nc1cccc(-n2nccn2)c1 [PRT062607]
- IC50 ([22]; Homo sapiens, all three parent AML cell lines and their resistant counterparts, read-out: IC50 values for growth suppression): 0.5 to 2 µM
- effect of added Syk inhibitor on sensitivity to A-419259 ([22]; fixed concentrations 50, 100 and 200 μM, 72 h, exception MV4-11 R2): did not affect

SMILES: CC(C)(C)c1cc(NC(=O)Nc2ccc(-c3cn4c(n3)sc3cc(OCCN5CCOCC5)ccc34)cc2)no1 [quizartinib]
- inhibition of myeloid Src-family kinases [23]: does not inhibit

— publication PMC6886798, “Expression of myeloid Src-family kinases is associated with poor prognosis in AML and influences Flt3-ITD kinase inhibitor acquired resistance” (PLoS ONE, 2019)
